Calls of active or inactive are those of the source. No cut-off for these calls is given here.
How the values were obtained:
[1] = molecular target: Glutamate receptor ionotropic, kainate 2 (Rattus norvegicus, UniProt P42260); assay: Displacement of [3H]kainate from rat GLUK6 expressed in HEK293 cells; format: cell-based
[2] = molecular target: Glutamate receptor ionotropic, AMPA (Rattus norvegicus, UniProt P19490+P19491+P19492+P19493)
Description: Antagonist activity against AMPA receptor expressed in motoneurones by inhibition of fDR-VRP in the neonatal rat spinal cord

[3] = molecular target: Metabotropic glutamate receptor 1 (Rattus norvegicus) (UniProt P23385); assay: Activity against DHPG-induced depolarization of neonatal rat motoneurons expressing mGlu1 receptor at 50 uM
Chain of Metabotropic glutamate receptor 1 (Rattus norvegicus) (P23385 19-1199 limits assumed): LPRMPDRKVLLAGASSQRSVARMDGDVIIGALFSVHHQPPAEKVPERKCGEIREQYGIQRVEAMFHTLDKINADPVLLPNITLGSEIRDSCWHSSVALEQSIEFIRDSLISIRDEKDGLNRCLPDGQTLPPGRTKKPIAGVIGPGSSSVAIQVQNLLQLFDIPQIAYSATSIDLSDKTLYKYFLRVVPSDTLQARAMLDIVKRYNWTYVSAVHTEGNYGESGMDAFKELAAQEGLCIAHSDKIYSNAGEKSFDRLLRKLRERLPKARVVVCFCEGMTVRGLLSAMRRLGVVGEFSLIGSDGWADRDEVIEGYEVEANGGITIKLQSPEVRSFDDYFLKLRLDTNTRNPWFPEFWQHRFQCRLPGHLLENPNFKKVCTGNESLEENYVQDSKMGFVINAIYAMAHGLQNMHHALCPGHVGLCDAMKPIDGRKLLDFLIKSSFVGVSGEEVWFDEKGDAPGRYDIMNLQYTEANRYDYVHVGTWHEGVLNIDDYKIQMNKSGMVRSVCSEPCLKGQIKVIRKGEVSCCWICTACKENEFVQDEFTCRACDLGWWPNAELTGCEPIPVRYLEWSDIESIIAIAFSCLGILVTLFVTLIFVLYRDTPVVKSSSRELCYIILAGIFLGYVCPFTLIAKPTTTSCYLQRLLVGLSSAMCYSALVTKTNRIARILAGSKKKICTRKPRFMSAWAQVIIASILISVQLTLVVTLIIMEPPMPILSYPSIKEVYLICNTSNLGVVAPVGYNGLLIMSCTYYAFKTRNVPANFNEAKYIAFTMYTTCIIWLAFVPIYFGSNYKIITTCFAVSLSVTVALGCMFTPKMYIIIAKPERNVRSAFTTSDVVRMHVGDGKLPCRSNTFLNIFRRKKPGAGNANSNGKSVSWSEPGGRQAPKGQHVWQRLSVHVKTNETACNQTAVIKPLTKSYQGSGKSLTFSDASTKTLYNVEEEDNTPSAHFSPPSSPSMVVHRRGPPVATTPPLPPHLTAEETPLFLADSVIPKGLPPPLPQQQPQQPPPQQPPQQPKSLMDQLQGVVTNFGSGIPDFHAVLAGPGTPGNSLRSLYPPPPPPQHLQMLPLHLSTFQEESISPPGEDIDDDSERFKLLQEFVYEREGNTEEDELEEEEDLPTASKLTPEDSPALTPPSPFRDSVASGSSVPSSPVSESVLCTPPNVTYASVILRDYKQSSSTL

[4] = molecular target: Metabotropic glutamate receptor 5 (Rattus norvegicus) (UniProt P31424); assay: Activity against DHPG-induced depolarization of neonatal rat motoneurons expressing mGlu5 receptor at 50 uM
[5] = molecular target: Glutamate receptor ionotropic, kainate 1 (Homo sapiens, UniProt P39086); assay: Inhibition of glutamate-induced calcium influx in HEK293 cells expressing human GLUK5 by FLIPR assay; format: functional, cell-based
Chain of Glutamate receptor ionotropic, kainate 1 (P39086 whole entry): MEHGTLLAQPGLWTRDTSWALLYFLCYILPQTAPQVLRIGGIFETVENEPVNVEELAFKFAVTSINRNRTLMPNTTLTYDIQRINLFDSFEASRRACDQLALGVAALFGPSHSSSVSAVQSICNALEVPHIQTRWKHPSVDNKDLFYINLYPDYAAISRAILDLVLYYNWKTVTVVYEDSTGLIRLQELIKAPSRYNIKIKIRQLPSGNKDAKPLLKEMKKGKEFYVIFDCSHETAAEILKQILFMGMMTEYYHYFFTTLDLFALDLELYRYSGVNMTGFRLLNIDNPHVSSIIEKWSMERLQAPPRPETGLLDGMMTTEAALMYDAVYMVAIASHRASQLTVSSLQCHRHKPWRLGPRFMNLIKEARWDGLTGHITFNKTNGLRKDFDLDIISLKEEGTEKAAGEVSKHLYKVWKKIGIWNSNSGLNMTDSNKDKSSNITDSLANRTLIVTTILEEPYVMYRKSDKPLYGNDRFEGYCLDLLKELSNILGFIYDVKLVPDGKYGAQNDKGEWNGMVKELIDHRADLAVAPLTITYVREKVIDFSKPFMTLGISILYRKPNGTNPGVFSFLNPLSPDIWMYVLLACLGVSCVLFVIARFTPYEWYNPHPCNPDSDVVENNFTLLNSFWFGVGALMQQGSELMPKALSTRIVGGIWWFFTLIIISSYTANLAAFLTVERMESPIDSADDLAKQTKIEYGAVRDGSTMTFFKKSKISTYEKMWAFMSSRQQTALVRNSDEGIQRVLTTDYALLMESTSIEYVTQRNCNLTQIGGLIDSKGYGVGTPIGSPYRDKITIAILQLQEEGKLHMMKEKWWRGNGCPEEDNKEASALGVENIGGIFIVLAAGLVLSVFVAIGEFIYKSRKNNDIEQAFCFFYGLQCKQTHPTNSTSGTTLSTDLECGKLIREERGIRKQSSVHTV

[6] = Inhibition of glutamate-induced calcium influx in HEK293 cells expressing human GLUK5/GLUK6 by FLIPR assay; format: functional, cell-based
[7] = Inhibition of glutamate-induced calcium influx in HEK293 cells expressing human GLUK5/GLUK2 by FLIPR assay; format: functional, cell-based
[8] = molecular target: T1, Glutamate receptor 1 (Homo sapiens, UniProt P42261); assay: Inhibition of glutamate-induced calcium influx in HEK293 cells expressing human GLUA1 up to 100 uM; format: functional, cell-based
T1 sequence (P42261 whole entry): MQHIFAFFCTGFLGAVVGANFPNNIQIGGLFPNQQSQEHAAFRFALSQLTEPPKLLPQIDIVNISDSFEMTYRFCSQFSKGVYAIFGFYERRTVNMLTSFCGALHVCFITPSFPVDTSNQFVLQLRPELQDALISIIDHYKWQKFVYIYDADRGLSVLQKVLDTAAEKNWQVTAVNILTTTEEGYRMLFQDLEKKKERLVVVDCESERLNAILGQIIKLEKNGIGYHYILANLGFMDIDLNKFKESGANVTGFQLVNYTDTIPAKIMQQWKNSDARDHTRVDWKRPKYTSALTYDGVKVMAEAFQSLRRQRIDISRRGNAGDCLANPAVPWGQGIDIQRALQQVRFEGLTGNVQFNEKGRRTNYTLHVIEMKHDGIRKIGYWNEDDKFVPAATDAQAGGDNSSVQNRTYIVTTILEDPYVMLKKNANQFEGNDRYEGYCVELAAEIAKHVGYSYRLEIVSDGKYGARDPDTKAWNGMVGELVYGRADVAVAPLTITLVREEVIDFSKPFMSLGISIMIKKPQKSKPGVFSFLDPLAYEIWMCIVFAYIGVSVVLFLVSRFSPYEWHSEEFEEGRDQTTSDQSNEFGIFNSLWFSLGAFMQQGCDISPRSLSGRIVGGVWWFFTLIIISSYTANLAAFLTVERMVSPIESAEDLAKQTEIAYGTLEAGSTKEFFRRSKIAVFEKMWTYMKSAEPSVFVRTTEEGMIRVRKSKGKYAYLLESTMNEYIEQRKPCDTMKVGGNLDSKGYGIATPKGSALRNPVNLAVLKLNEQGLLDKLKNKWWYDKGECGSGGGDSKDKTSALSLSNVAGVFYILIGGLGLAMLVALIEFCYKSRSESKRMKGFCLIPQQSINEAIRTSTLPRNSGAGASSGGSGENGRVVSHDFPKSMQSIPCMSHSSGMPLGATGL

[9] = molecular target: Glutamate receptor 2 (Homo sapiens) (UniProt P42262); assay: Inhibition of glutamate-induced calcium influx in HEK293 cells expressing human GLUA2 up to 100 uM; format: functional, cell-based
Chain of Glutamate receptor 2 (Homo sapiens) (P42262 whole entry): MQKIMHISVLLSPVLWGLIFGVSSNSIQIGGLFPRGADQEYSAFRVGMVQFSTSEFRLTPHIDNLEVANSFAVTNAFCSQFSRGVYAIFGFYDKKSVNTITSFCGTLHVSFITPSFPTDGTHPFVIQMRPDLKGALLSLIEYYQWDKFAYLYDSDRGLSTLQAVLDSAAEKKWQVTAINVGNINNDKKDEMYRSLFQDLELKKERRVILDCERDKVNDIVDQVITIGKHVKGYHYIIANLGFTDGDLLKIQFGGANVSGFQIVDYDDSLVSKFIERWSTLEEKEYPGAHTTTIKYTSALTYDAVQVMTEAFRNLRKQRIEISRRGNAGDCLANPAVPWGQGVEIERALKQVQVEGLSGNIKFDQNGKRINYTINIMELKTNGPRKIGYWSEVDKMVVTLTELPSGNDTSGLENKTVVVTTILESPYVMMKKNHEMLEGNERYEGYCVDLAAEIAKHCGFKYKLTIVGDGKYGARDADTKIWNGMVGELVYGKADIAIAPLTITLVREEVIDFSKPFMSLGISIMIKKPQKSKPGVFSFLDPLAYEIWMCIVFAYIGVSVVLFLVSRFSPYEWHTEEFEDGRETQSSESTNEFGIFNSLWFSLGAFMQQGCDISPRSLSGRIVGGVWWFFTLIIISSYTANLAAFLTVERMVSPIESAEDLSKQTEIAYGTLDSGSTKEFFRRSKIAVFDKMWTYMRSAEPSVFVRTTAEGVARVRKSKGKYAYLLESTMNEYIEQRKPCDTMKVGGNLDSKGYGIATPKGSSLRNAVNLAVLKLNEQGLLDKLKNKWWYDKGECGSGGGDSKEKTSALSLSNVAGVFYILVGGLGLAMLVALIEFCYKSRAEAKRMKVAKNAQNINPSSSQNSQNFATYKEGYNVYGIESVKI

[10] = molecular target: Glutamate receptor 4 (Homo sapiens, UniProt P48058); assay: Inhibition of glutamate-induced calcium influx in HEK293 cells expressing human GLUA4 up to 100 uM; format: functional, cell-based
[11] = molecular target: Glutamate NMDA receptor (Rattus norvegicus) (UniProt P35439+Q00959+Q00960+Q00961+Q62645+Q8VHN2+Q9R1M7); assay: Activity against NMDA-induced depolarization of neonatal rat motoneurons expressing NMDA receptor at 50 uM; format: protein-complex assay
[12] = Induction of calcium influx in HEK293 cells expressing human GLUK5/GLUK6 by FLIPR assay
[13] = Induction of calcium influx in HEK293 cells expressing human GLUK5/GLUK2 by FLIPR assay
[14] = molecular target: T1, Glutamate receptor 1; assay: Inhibition of glutamate-induced calcium influx in HEK293 cells expressing human GLUA1; format: functional, cell-based

Chain of Glutamate receptor ionotropic, kainate 2 (P42260 whole entry): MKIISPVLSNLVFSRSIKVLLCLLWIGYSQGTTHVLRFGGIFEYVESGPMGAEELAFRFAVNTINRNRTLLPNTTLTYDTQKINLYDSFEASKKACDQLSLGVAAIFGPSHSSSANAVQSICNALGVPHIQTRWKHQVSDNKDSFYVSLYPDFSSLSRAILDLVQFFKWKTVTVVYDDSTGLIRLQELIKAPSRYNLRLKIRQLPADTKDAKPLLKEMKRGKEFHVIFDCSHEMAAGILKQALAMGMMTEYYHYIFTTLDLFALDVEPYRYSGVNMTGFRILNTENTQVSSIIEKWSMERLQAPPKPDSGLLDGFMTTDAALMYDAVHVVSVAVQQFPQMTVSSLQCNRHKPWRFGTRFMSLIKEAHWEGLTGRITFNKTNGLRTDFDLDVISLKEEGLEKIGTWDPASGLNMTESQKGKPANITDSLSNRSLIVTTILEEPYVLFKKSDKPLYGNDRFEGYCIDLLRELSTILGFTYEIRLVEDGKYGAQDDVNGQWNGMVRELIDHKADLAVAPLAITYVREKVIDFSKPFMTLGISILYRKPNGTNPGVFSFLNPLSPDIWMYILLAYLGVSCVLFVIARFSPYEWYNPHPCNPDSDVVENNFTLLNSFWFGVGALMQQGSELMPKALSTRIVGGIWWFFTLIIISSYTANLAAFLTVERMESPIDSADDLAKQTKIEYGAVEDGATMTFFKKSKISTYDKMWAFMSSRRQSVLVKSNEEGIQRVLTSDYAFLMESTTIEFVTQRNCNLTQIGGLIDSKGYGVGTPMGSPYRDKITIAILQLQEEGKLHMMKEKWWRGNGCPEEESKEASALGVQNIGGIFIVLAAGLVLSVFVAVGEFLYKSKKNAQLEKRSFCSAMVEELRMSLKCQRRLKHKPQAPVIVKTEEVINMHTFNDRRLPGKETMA

| Compound | Ki [1] [µM] | IC50 [2] [µM] | also measured |
| --- | --- | --- | --- |
| N[C@@H](CCC(=O)O)C(=O)O [GLUTAMIC ACID] | – | – | EC50 [12]: 27 µM; EC50 [13]: 35 µM |
| N[C@@H](Cn1ccc(=O)n(Cc2ccccc2P(=O)(O)O)c1=O)C(=O)O | – | > 100 | – |
| N[C@@H](Cn1ccc(=O)n(CCC(=O)O)c1=O)C(=O)O | > 1000 | – | – |
| N[C@H](Cn1ccc(=O)n(Cc2ccsc2C(=O)O)c1=O)C(=O)O | > 1000 | > 100 | – |
| NC(Cn1ccc(=O)n(Cc2ccc(P(=O)(O)O)cc2)c1=O)C(=O)O (racemic) | > 1000 | 107 | – |
| NS(=O)(=O)c1cccc2c1c([N+](=O)[O-])cc1nc(O)c(O)nc12 [NBQX] | – | – | IC50 [6]: 28 µM; IC50 [7]: 50 µM; IC50 [14]: 6 µM |

Now from value to compound, other results behind:

| Ki [1] [µM] | IC50 [2] [µM] | Compound | also measured |
| --- | --- | --- | --- |
| > 100 | 45.4 | N[C@@H](Cn1ccc(=O)n(Cc2nn[nH]n2)c1=O)C(=O)O | – |
| > 100 | 31.2 | N[C@@H](Cn1ccc(=O)n(Cc2ccsc2C(=O)O)c1=O)C(=O)O | Activity [3]: inactive; Activity [4]: inactive; IC50 [5]: 0.68 µM; IC50 [6]: 0.62 µM; IC50 [7]: 1.21 µM; Activity [8]: inactive; Activity [9]: inactive; Activity [10]: inactive; Activity [11]: inactive; Kd [2]: 71.4 µM |
| > 100 | 6.87 | N[C@@H](Cn1ccc(=O)n(CCc2nnn[nH]2)c1=O)C(=O)O | – |
| – | 3.73 | N[C@@H](Cn1cc(I)c(=O)n(CCc2nn[nH]n2)c1=O)C(=O)O | – |
| – | 50.9 | N[C@@H](Cn1ccc(=O)n(Cc2ccc(-c3nn[nH]n3)cc2)c1=O)C(=O)O | – |
| > 100 | 11.7 | N[C@@H](Cn1ccc(=O)n(Cc2ccoc2C(=O)O)c1=O)C(=O)O | – |
| > 100 | 49 | N[C@@H](Cn1ccc(=O)n(Cc2ccc(S(=O)(=O)O)cc2)c1=O)C(=O)O | – |

From ChEMBL document CHEMBL1146072, “Structure-activity relationship studies on N3-substituted willardiine derivatives acting as AMPA or kainate receptor antagonists” (J Med Chem, 2006)
